The source of these data is patent publication US7541020B2, “Aminoalkyl glucosaminide phosphate compounds and their use as adjuvants and immunoeffectors” (priority 1997, dated 2009).

Where two headings read alike, the source gives them in different places.

One series has as its system E.G7 (OVA) cells. The settings on record: s.c. 25 μg OVA in AGP preparation, spleen cells 21 days later.
For a further series, the system named is influenza A/HK/68. Format: in vivo, ICR mice.
A further series has as its system TNF-α. Briefly: Cytokine induction in human whole blood ex vivo culture: TNF-α (ELISA). The format is cell-based. The settings on record: 4 hr. As for the experimental part: (§1) AGP compounds were solubilized in 10% EtOH-water and diluted to various concentrations. Fifty μl of each dilution were added to 450 μl of whole human blood. Controls were treated with culture media (RPMI). The reaction mixture was incubated at 37° C. for 4 hr with constant mixing on a rotator. Sterile PBS (1.5 ml) was added to the reaction mixture, the cells were centrifuged and the supernatents removed for cytokine testing. The concentration of TNF-α and IL-1β in each supernatent was determined using immunoassay ELISA kits from R&D Systems.
In general terms: An ELISA detects its analyte on a solid surface through an enzyme-linked reagent.

A further series relates to tetanus toxoid. The settings on record: mouse, in vivo, sc.
The test system of the next series is IL-1β. Briefly: Cytokine induction in human whole blood ex vivo culture: IL-1β (ELISA). The following applies: 4 hr. Format: cell-based. Here is the method:
as §1

The mark [1] stands for this setting: 25 μg AGP + 1 HAU FI-Flu in 0.2% TEoA, once, bled day 14, Table 11.

Take “3-Hydroxy-(S)-2-[(R)-3-heptanoyloxytetradecanoylamino]propyl 2-Deoxy-4-O-phosphono-2-[(R)-3-heptanoyloxytetradecanoylamino]-3-O-[(R)-3-heptanoyloxytetradecanoyl]-β-D-glucopyranoside Triethylammonium Salt [B8]”: the “% Cytotoxicity” value in the series with E.G7 (OVA) cells (E:T 12.5:1) is on record as 15%. Moreover, the “% Cytotoxicity” value in the series on E.G7 (OVA) cells (E:T 25:1) was 20%. In addition, the “% Cytotoxicity” value in the series on E.G7 (OVA) cells (E:T 50:1) came out at 36%. For the same substance, in the series on influenza A/HK/68 (mouse, in vivo), the “Percent Survival” value is recorded as 80%, the “Titer−1 IgG1” value is on record as 3200, the “Titer−1 IgG2a” value is 400 and the “Titer−1 IgG2b” value is 1600. Also, the “Titer−1 Total IgG” value with influenza A/HK/68 (mouse, in vivo) amounted to 6400.
Consider “N-[(R)-3-Decanoyloxytetradecanoyl]-O-[2-deoxy-4-O-phosphono-2-[(R)-3-decanoyloxytetradecanoylamino]-3-O-[(R)-3-hexanoyloxytetradecanoyl]-α-D-glucopyranosyl]-L-serine Triethylammonium Salt [B35]”, for which the “% Cytotoxicity” value was determined as 2% in the series with E.G7 (OVA) cells (E:T 12.5:1), 5% in the series on E.G7 (OVA) cells (E:T 25:1) and 9% with E.G7 (OVA) cells (E:T 50:1).
In the same order, the values of “N-[(R)-3-Decanoyloxytetradecanoyl]-O-[2-deoxy-4-O-phosphono-2-[(R)-3-hexanoyloxytetradecanoylamino]-3-O-[(R)-3-decanoyloxytetradecanoyl]-α-D-glucopyranosyl]-L-serine Triethylammonium Salt [B36]” are 4%, 7% and 13%.
In the same order, the values of “N-[(R)-3-Decanoyloxytetradecanoyl]-O-[2-deoxy-4-O-phosphono-2-[(R)-3-hexanoyloxytetradecanoylamino]-3-O-[(R)-3-hexanoyloxytetradecanoyl]-α-D-glucopyranosyl]-L-serine Triethylammonium Salt [B40]” are 8%, 12% and 20%.
Consider “N-[(R)-3-Heptanoyloxytetradecanoyl]-O-[2-deoxy-4-O-phosphono-2-[(R)-3-heptanoyloxytetradecanoylamino]-3-O-[(R)-3-heptanoyloxytetradecanoyl]-β-D-glucopyranosyl]-L-serine Triethylammonium Salt [B18]”, for which the “% Cytotoxicity” value in the series on E.G7 (OVA) cells (E:T 12.5:1) was 15%. The “% Cytotoxicity” value in the series with E.G7 (OVA) cells (E:T 25:1) turned out to be 20%. Besides, in the series on E.G7 (OVA) cells (E:T 50:1), the “% Cytotoxicity” value was 36%. In the series with influenza A/HK/68 (setting [1]), the “Titer^−1 IgG1” value is recorded as 800, the “Titer^−1 IgG2a” value stood at 800, the “Titer^−1 IgG2b” value was 400 and the “Titer^−1 Total IgG” value is recorded as 800. For the same substance, the “Percent Survival” value in the series on influenza A/HK/68 ([…], mortality 21 days, Table 11) came to 20%.
Regarding “N-[(R)-3-Hexanoyloxytetradecanoyl]-O-[2-deoxy-4-O-phosphono-2-[(R)-3-decanoyloxytetradecanoylamino]-3-O-[(R)-3-decanoyloxytetradecanoyl]-α-D-glucopyranosyl]-L-serine Triethylammonium Salt [B37]”, the “% Cytotoxicity” value is reported as 6% in the series on E.G7 (OVA) cells (E:T 12.5:1), 8% with E.G7 (OVA) cells (E:T 25:1) and 12% in the series on E.G7 (OVA) cells (E:T 50:1).
Consider “N-[(R)-3-Hexanoyloxytetradecanoyl]-O-[2-deoxy-4-O-phosphono-2-[(R)-3-decanoyloxytetradecanoylamino]-3-O-[(R)-3-hexanoyloxytetradecanoyl]-α-D-glucopyranosyl]-L-serine Triethylammonium Salt [B39]”, for which the “% Cytotoxicity” value in the series on E.G7 (OVA) cells (E:T 12.5:1) was 13%; with E.G7 (OVA) cells (E:T 25:1), 21%; in the series on E.G7 (OVA) cells (E:T 50:1), 33%.
Take “N-[(R)-3-Hexanoyloxytetradecanoyl]-O-[2-deoxy-4-O-phosphono-2-[(R)-3-hexanoyloxytetradecanoylamino]-3-O-[(R)-3-decanoyloxytetradecanoyl]-α-D-glucopyranosyl]-L-serine Triethylammonium Salt [B38]”: the “% Cytotoxicity” value in the series on E.G7 (OVA) cells (E:T 12.5:1) was 16%; with E.G7 (OVA) cells (E:T 25:1), 25%; in the series on E.G7 (OVA) cells (E:T 50:1), 38%.
Regarding “N-[(R)-3-Hydroxytetradecanoyl]-O-[2-deoxy-4-O-phosphono-2-[(R)-3-dodecanoyloxytetradecanoylamino]-3-O-[(R)-3-tetradecanoyloxytetradecanoyl]-α-D-glucopyranosyl]-L-serine Triethylammonium Salt [B43]”, the entries for the “% Cytotoxicity” value in the series on E.G7 (OVA) cells (E:T 12.5:1), with E.G7 (OVA) cells (E:T 25:1) and in the series with E.G7 (OVA) cells (E:T 50:1) were 6%, 12% and 19%, respectively.
Take “N-[(R)-3-Nonanoyloxytetradecanoyl]-O-[2-deoxy-4-O-phosphono-2-[(R)-3-nonanoyloxytetradecanoylamino]-3-O-[(R)-3-nonanoyloxytetradecanoyl]-β-D-glucopyranosyl]-L-serine Triethylammonium Salt [B16]”: the TNF-α in the series with TNF-α (Dosage 500 ng/ml, Table 17) amounted to 55 pg/mL; with TNF-α (Dosage 1000 ng/ml, Table 15) it was 155 pg/mL; in the series with TNF-α (Dosage 1000 ng/ml, Table 17), 72 pg/mL; in the series with TNF-α (Dosage 5000 ng/ml, Table 15) it was 277 pg/mL; in the series on TNF-α (Dosage 5000 ng/ml, Table 17), 114 pg/mL; in the series on TNF-α (Dosage 10,000 ng/ml, Table 15), 291 pg/mL. The substance also returned a TNF-α in the series with TNF-α (Dosage 10,000 ng/ml, Table 17) of 121 pg/mL. The “% Cytotoxicity” value in the series on E.G7 (OVA) cells (E:T 12.5:1) came to 20%; in the series on E.G7 (OVA) cells (E:T 25:1), 29%; in the series with E.G7 (OVA) cells (E:T 50:1), 42%. The “Anti-tetanus toxoid IgG2a T/C” value in the series with tetanus toxoid is 66.8. Besides, the “Anti-tetanus toxoid IgG2a titer” value with tetanus toxoid was determined as 1135. Besides, in the series on tetanus toxoid, the “Anti-tetanus toxoid IgG2b T/C” value turned out to be 104. In addition, the “Anti-tetanus toxoid IgG2b titer” value in the series with tetanus toxoid worked out at 6880. In addition, the “Anti-tetanus toxoid IgM T/C” value in the series with tetanus toxoid came out at 1.6. Moreover, in the series on tetanus toxoid, the “Anti-tetanus toxoid IgM titer” value is 2560. For the same substance, the “Percent Survival” value in the series with influenza A/HK/68 (mouse, in vivo) was 40%. The “Titer^−1 IgG1” value in the series with influenza A/HK/68 (mouse, in vivo) is 1600. Also, the “Titer^−1 IgG2a” value with influenza A/HK/68 (mouse, in vivo) was 100. For the same substance, in the series on influenza A/HK/68 (mouse, in vivo), the “Titer^−1 IgG2b” value is on record as 800. Moreover, the “Titer^−1 Total IgG” value in the series with influenza A/HK/68 (mouse, in vivo) worked out at 800. The IL-1β came to 17.1 pg/mL in the series on IL-1β (Dosage 500 ng/ml, Table 17); 39 pg/mL in the series with IL-1β (Dosage 1000 ng/ml, Table 15); 19.5 pg/mL with IL-1β (Dosage 1000 ng/ml, Table 17); 53 pg/mL with IL-1β (Dosage 5000 ng/ml, Table 15); 34.0 pg/mL with IL-1β (Dosage 5000 ng/ml, Table 17); 55 pg/mL in the series with IL-1β (Dosage 10,000 ng/ml, Table 15). The IL-1β in the series with IL-1β (Dosage 10,000 ng/ml, Table 17) is 41.0 pg/mL.
As for “N-[(R)-3-Undecanoyloxytetradecanoyl]-O-[2-deoxy-4-O-phosphono-2-[(R)-3-undecanoyloxytetradecanoylamino]-3-O-[(R)-3-undecanoyloxytetradecanoyl]-β-D-glucopyranosyl]-L-serine Triethylammonium Salt [B13]”, the TNF-α with TNF-α (Dosage 100 ng/ml, Table 17) is 302 pg/mL; in the series on TNF-α (Dosage 500 ng/ml, Table 17) it was 411 pg/mL; in the series with TNF-α (Dosage 1000 ng/ml, Table 15), 740 pg/mL; in the series with TNF-α (Dosage 1000 ng/ml, Table 17), 478 pg/mL; in the series with TNF-α (Dosage 5000 ng/ml, Table 15) it was 716 pg/mL; in the series on TNF-α (Dosage 5000 ng/ml, Table 17), 592 pg/mL. For the same substance, the TNF-α came to 775 pg/mL in the series on TNF-α (Dosage 10,000 ng/ml, Table 15) and 583 pg/mL in the series on TNF-α (Dosage 10,000 ng/ml, Table 17). For the same substance, the “% Cytotoxicity” value came out at 10% in the series with E.G7 (OVA) cells (E:T 12.5:1), 15% with E.G7 (OVA) cells (E:T 25:1) and 28% in the series with E.G7 (OVA) cells (E:T 50:1). Also, the “Anti-tetanus toxoid IgG2a T/C” value with tetanus toxoid came to 220. Moreover, the “Anti-tetanus toxoid IgG2a titer” value in the series on tetanus toxoid worked out at 3740. Moreover, the “Anti-tetanus toxoid IgG2b T/C” value in the series on tetanus toxoid is given as >208. For the same substance, the “Anti-tetanus toxoid IgG2b titer” value with tetanus toxoid is >13,760. For the same substance, the “Anti-tetanus toxoid IgM T/C” value with tetanus toxoid worked out at 3.9. Also, in the series on tetanus toxoid, the “Anti-tetanus toxoid IgM titer” value came to 6080. In the series on influenza A/HK/68 (mouse, in vivo), the “Percent Survival” value came to 50%. In addition, the “Titer^−1 IgG1” value in the series with influenza A/HK/68 (mouse, in vivo) is reported as 800. Besides, in the series with influenza A/HK/68 (mouse, in vivo), the “Titer^−1 IgG2a” value is recorded as 400. Further, the “Titer^−1 IgG2b” value in the series with influenza A/HK/68 (mouse, in vivo) amounted to 800. Further, in the series on influenza A/HK/68 (mouse, in vivo), the “Titer^−1 Total IgG” value was 1600. The IL-1β amounted to 261 pg/mL in the series with IL-1β (Dosage 100 ng/ml, Table 17); 352 pg/mL in the series on IL-1β (Dosage 500 ng/ml, Table 17); 177 pg/mL in the series with IL-1β (Dosage 1000 ng/ml, Table 15); 327 pg/mL in the series on IL-1β (Dosage 1000 ng/ml, Table 17); 187 pg/mL in the series with IL-1β (Dosage 5000 ng/ml, Table 15); 390 pg/mL in the series on IL-1β (Dosage 5000 ng/ml, Table 17). Besides, the IL-1β result in the series with IL-1β (Dosage 10,000 ng/ml, Table 15) was “THTC*”; with IL-1β (Dosage 10,000 ng/ml, Table 17), 282 pg/mL.
